Data on six molecules can be found in ChEMBL document CHEMBL4196239, “Bromopyrrole Alkaloid Inhibitors of the Proteasome Isolated from a Dictyonella sp. Marine Sponge Collected at the Amazon River Mouth” (J Nat Prod, 2018).

The term IC50 denotes the midpoint of a concentration-inhibition curve.

This assay is described as follows: Inhibition of yeast chymotrypsin-like 20S proteasome using suc-LLVY-AMC as substrate pretreated for 1 hr followed by substrate addition measured every 2 mins for 1 hr by fluorescence assay. Also on record: species or system Saccharomyces cerevisiae.

The structures appear in SMILES notation.

Consider `Nc1ncc(/C=C/CNC(=O)c2ccc(Br)[nH]2)[nH]1`, for which the IC50 was 27 µM.
Turning to `Nc1nc(/C=C/CNC(=O)c2cc(Br)c[nH]2)c[nH]1`, the IC50 is 23 µM.
On to `N=C(N)Nc1c2n(c(=O)c3[nH]cc(Br)c13)CCC2`, for which the IC50 is more than 100 µM.
The result for `NC1=N[C@@]23CCCN2C(=O)c2[nH]cc(Br)c2[C@H]3N1` reads 69 µM; that for `N=C(N)Nc1c2n(c(=O)c3[nH]c(Br)cc13)CCC2`, more than 100 µM; that for `N=C1N[C@@H](O)[C@@]2(N1)[C@@H](Cl)[C@H](CN)[C@H]1CN3C(=O)c4ccc(Br)n4[C@@H]4NC(=N)N[C@@]43[C@@H]12`, 9.2 µM.
